Each block holds one molecule with its values, some of them ahead of it.
Assay: solvent given as SMILES

SMILES: Cc1ccc(C2=C3C=CC(C#Cc4ccccc4)=[N+]3[B-](F)(F)n3c(C#Cc4ccccc4)ccc32)cc1
- emission maximum (in C1CCCCC1): 626 nm
- emission maximum (in C1CCOC1): 625 nm
- emission maximum (in C1COCCO1): 626 nm
- emission maximum (in CCOC(C)=O): 621 nm
- emission maximum (in CO): 622 nm
- emission maximum (in Cc1ccccc1): 629 nm
- emission maximum (in ClC(Cl)Cl): 628 nm
- emission maximum (in ClCCl): 628 nm

SMILES: CC1=CC(C)=[N+]2C1=C(C)c1cccn1[B-]2(F)F
- emission maximum (in CCCCCC): 498 nm
- emission maximum (in CO): 497 nm
- emission maximum (in ClCCl): 500 nm

SMILES: COc1ccccc1C1=C2C(C)=CC(C)=[N+]2[B-](F)(F)n2c(C)cc(C)c21
- emission maximum (in C1CCOC1): 516 nm
- emission maximum (in CC#N): 512 nm
- emission maximum (in CC(=O)C(C)(C)C): 514 nm
- emission maximum (in CC(C)=O): 513 nm
- emission maximum (in CCCCCC): 516 nm
- emission maximum (in CCOC(C)=O): 514 nm
- emission maximum (in CO): 514 nm

SMILES: CC1(C)c2ccccc2N(c2ccccc2)c2ccc(-c3ccc(-c4ccc5c(c4)C(C)(C)c4ccccc4N5c4ccccc4)c4nsnc34)cc21
- emission maximum (in Cc1ccccc1): 596.02 nm
- emission maximum (in c1ccc2c(c1)c1ccccc1n2-c1ccc(-c2ccc(-n3c4ccccc4c4ccccc43)cc2)cc1): 588 nm

SMILES: CCCCCCOc1ccc(N(c2ccc(OCCCCCC)cc2)c2ccc(-c3sc(-c4ccc(N(c5ccc(OCCCCCC)cc5)c5ccc(OCCCCCC)cc5)cc4)c4nc(CC)c(CC)nc34)cc2)cc1
- emission maximum (in ClCCl): 725 nm

SMILES: COCCC1(CCOC)c2cc(-c3ccc(OC)cc3)ccc2-c2ccc(-c3ccc(OC)cc3)cc21
- emission maximum (in C1CCCCC1): 371 nm

SMILES: CCN1C(=O)C(C2C(=O)c3c4ccccc4cc4cc5ccccc5c2c34)C(=O)N(CC)C1=S (configuration not stated)
- emission maximum (in C1CCOC1): 571 nm
- emission maximum (in CCCCCC): 544 nm
- emission maximum (in Cc1ccccc1): 564 nm
- emission maximum (in ClCCl): 582 nm

SMILES: CC(C)(C)c1ccc2c(c1)c1cc(C(C)(C)C)ccc1n2-c1cccc(-c2nc(-c3cccc(P(=O)(c4ccccc4)c4ccccc4)c3)nc(-c3cccc(P(=O)(c4ccccc4)c4ccccc4)c3)n2)c1
- emission maximum (in C1CCOC1): 511.91 nm
- emission maximum (in CC#N): 581.72 nm
- emission maximum (in CC(C)=O): 554.6 nm
- emission maximum (in CN(C)C=O): 567.81 nm
- emission maximum (in Cc1ccccc1): 480.78 nm
- emission maximum (in ClC(Cl)Cl): 512.5 nm
- emission maximum (in ClCCl): 535.02 nm
- emission maximum (in O=P(c1ccccc1)(c1ccccc1)c1ccccc1Oc1ccccc1P(=O)(c1ccccc1)c1ccccc1): 484 nm

SMILES: CC(C)(C)c1ccc2c(c1)c1cc(C(C)(C)C)ccc1n2-c1cc(N2c3ccccc3C(c3ccccc3)(c3ccccc3)c3ccccc32)cc(-n2c3ccc(C(C)(C)C)cc3c3cc(C(C)(C)C)ccc32)c1C#N
- emission maximum (in Cc1ccccc1): 458 nm

SMILES: Cc1cc2c(o1)=CC1=C(C(F)(F)F)c3cc4oc(C)cc4n3[B-](F)(F)[N+]=21
- emission maximum (in ClC(Cl)Cl): 620 nm

SMILES: CC(C)(C)c1ccc2c(c1)c1cc(C(C)(C)C)ccc1n2-c1ccc(C#Cc2cccc(C#Cc3ccc(-n4c5ccc(C(C)(C)C)cc5c5cc(C(C)(C)C)ccc54)cc3)c2)cc1
- emission maximum (in CC#N): 435 nm
- emission maximum (in CCCCC): 359 nm
- emission maximum (in CO): 426 nm
- emission maximum (in Cc1ccccc1): 379 nm
- emission maximum (in ClC(Cl)Cl): 400 nm
- emission maximum (in ClCCl): 416 nm

SMILES: CCCCCCCCCCCCN1C(=O)c2c(c3ccc4cc(-c5ccc(-c6ccccc6)cc5)c(OC)cc4c3c3c2ccc2cc(-c4ccc(-c5ccccc5)cc4)c(OC)cc23)C1=O
- emission maximum (in ClCCl): 527 nm

SMILES: CCCCCCc1ccc(-n2c3[n+](c4c5ccccc5c5ccccc5c42)[B-](C)(C)c2ccc4ccccc4c2-3)cc1
- emission maximum (in C1CCOC1): 444 nm
- emission maximum (in CC#N): 443 nm
- emission maximum (in Cc1ccccc1): 444 nm
- emission maximum (in ClCCl): 435 nm

SMILES: Fc1c(-n2c3ccccc3c3ccccc32)c(-c2nnc(-c3ccccc3)o2)c(-n2c3ccccc3c3ccccc32)c(-n2c3ccccc3c3ccccc32)c1-n1c2ccccc2c2ccccc21
- emission maximum (in Cc1ccccc1): 483 nm

SMILES: Cc1cccc(NC(=O)c2ccc(N(C)C)cc2)c1
- emission maximum (in C1CCCCC1): 452 nm
- emission maximum (in C1CCOC1): 518 nm
- emission maximum (in CC#N): 502 nm
- emission maximum (in CCOCC): 498 nm

SMILES: COc1cc2c3c(c4cc(OC)c(OC)c(OC)c4c2c(OC)c1OC)=[N+]1C(=C(c2c(C)cc(C)cc2C)c2cc4c5cc(OC)c(OC)c(OC)c5c5c(OC)c(OC)c(OC)cc5c4n2[B-]1(F)F)C=3
- emission maximum (in C1CCCCC1): 749 nm
- emission maximum (in C1CCOC1): 763 nm
- emission maximum (in CC#N): 755 nm
- emission maximum (in Cc1ccccc1): 767 nm
- emission maximum (in ClCCl): 771 nm

SMILES: CCc1ccc(-c2nc(-c3ccc(-n4c5ccccc5c5ccccc54)cc3)cc(-c3ccc(-n4c5ccccc5c5ccccc54)cc3)n2)cc1
- emission maximum (in C1CCOC1): 436 nm
- emission maximum (in CN(C)C=O): 482 nm
- emission maximum (in Cc1ccccc1): 402 nm
- emission maximum (in ClC(Cl)Cl): 435 nm

SMILES: COc1ccc(-n2nc(C#N)c(N3CCC(N4CCCCC4)CC3)n2)cc1
- emission maximum (in CC#N): 403 nm

SMILES: CCC(CC)COC1=CC2=C3c4cc(OCC(CC)CC)c(-c5ccccc5)n4[B-](F)(F)[n+]4c3n(c3cc(C(C)(C)C)ccc34)[B-](F)(F)[N+]2=C1c1ccccc1
- emission maximum (in C1CCOC1): 734 nm
- emission maximum (in CC#N): 733 nm
- emission maximum (in ClCCl): 736 nm

SMILES: CCn1c(-c2ccc(-c3ccc4c(c3)C3(c5ccccc5-c5ccccc53)c3ccccc3-4)cc2)c(-c2ccc3ccccc3c2)c(-c2ccc3ccccc3c2)c1-c1ccc(-c2ccc3c(c2)C2(c4ccccc4-c4ccccc42)c2ccccc2-3)cc1
- emission maximum (in CCOC(C)=O): 441 nm

SMILES: CCCCCCn1c2ccccc2c2cc3c4cc5c6ccccc6n(CCCCCC)c5cc4c4cc5c(C)cc(=O)oc5cc4c3cc21
- emission maximum (in ClC(Cl)Cl): 415 nm

SMILES: C(=C\c1ccncn1)/c1ccc(N(c2ccccc2)c2ccc(/C=C/c3ccncn3)cc2)cc1
- emission maximum (in ClCCl): 555 nm

SMILES: CCC1(CC)c2ccccc2-c2c1c1c(c3c2C(CC)(CC)c2cc(B(c4c(C)cc(C)cc4C)c4c(C)cc(C)cc4C)ccc2-3)C(CC)(CC)c2ccccc2-1
- emission maximum (in C1CCOC1): 385 nm
- emission maximum (in CC#N): 404 nm
- emission maximum (in CC(C)=O): 395 nm
- emission maximum (in CCCCCC): 372 nm
- emission maximum (in ClC(Cl)Cl): 387 nm

SMILES: CCOC(=O)COc1ccc(/C=C/C2=C3c4ccccc4C(c4[nH]c(C)cc4C)=[N+]3[B-](F)(F)n3c(/C=C/c4ccc(OCC(=O)OCC)cc4)cc(C)c32)cc1
- emission maximum (in C1CCOC1): 730 nm
- emission maximum (in CC#N): 727 nm
- emission maximum (in CCCCCC): 731 nm
- emission maximum (in CO): 726 nm
- emission maximum (in Cc1ccccc1): 735 nm
- emission maximum (in ClCCl): 733 nm

SMILES: CCN(CC)c1ccc(C2=C3C(C)=CC(/C=C/c4ccc(OCCCN=[N+]=[N-])cc4)=[N+]3[B-](F)(F)n3c(C)cc(C)c32)cc1
- emission maximum (in CO): 587 nm

The remaining lines, values ahead:

- emission maximum (in C1CCCCC1): 421 nm
- emission maximum (in C1CCOC1): 483 nm
- emission maximum (in CC#N): 529 nm
- emission maximum (in CS(C)=O): 543 nm
- emission maximum (in ClCCl): 490 nm
SMILES: CN(C)c1ccc(-c2ncnc3ccccc23)cc1

- emission maximum (in CS(C)=O): 417 nm
- emission maximum (in O): 430 nm
SMILES: Cn1c2ccccc2c(=O)c2ccccc21

- emission maximum (in CC#N): 480 nm
- emission maximum (in CO): 498 nm
- emission maximum (in ClCCl): 477 nm
SMILES: O=C1c2ccccc2-c2c(-c3ccccc3O)[nH]c(=O)n21

- emission maximum (in ClCCl): 545 nm
SMILES: c1ccc(C2=C(c3ccccc3)c3cccc4c5c(cc(c34)O2)=NC2CCCCC2N=5)cc1 (configuration not stated)

- emission maximum (in CO): 578 nm
SMILES: CC1=CC(/C=C/c2ccc(OCCCN=[N+]=[N-])cc2)=[N+]2C1=C(c1ccccc1)c1c(C)cc(C)n1[B-]2(F)F

- emission maximum (in CCO): 651 nm
- emission maximum (in ClC(Cl)Cl): 647 nm
- emission maximum (in O): 658 nm
SMILES: CC[N+](CC)=c1ccc2c(-c3ccccc3C(=O)O)c3c(=O)oc4cc5c(cc4c3oc-2c1)CCCN5C

- emission maximum (in ClCCl): 400 nm
SMILES: C1=C(c2ccccc2)[Si](c2ccccc2)(c2ccccc2)c2ccccc21

- emission maximum (in CCCCCC): 417 nm
- emission maximum (in CCOC(C)=O): 429 nm
- emission maximum (in CN(C)C=O): 443 nm
- emission maximum (in CO): 452 nm
- emission maximum (in CS(C)=O): 452 nm
- emission maximum (in ClC(Cl)Cl): 428 nm
SMILES: O=C1CC(c2cccc([N+](=O)[O-])c2)c2c(c3ccccc3c3nc4ccccc4nc23)O1 (configuration not stated)

- emission maximum (in O): 601 nm
SMILES: CC[n+]1c(-c2ccccc2)c2cc(NC(N)=O)ccc2c2ccc(N)cc21

- emission maximum (in ClCCl): 410 nm
SMILES: CCOC(=O)c1c(-c2c(Cl)c3ccccc3oc2=O)nn(-c2cccc(C)c2)c1C(=O)OCC

- emission maximum (in ClCCl): 445 nm
SMILES: CCN(CC)c1ccc2c(c1)oc(=O)c1cnc3c(c(C)nn3-c3ccccc3)c12

- emission maximum (in ClCCl): 857 nm
SMILES: CCN(CC)c1ccc2c(-c3ccccc3C(=O)O)c3c([o+]c2c1)/C(=C/C=C/c1ccc(N(C)C)cc1)CCC3

- emission maximum (in ClC(Cl)Cl): 633 nm
SMILES: CC1=C(/C=C/c2ccccc2)C(C)=[N+]2C1=C(c1ccccc1)c1c(C)c(/C=C/c3ccccc3)c(C)n1[B-]2(F)F

- emission maximum (in ClC(Cl)Cl): 447 nm
SMILES: Cc1cccc(C2=Cc3c4ccccc4c4ccccc4[n+]3[B-](F)(F)O2)c1

- emission maximum (in C1CCCCC1): 329 nm
- emission maximum (in CC#N): 340 nm
- emission maximum (in CO): 345 nm
- emission maximum (in O): 350 nm
SMILES: CCOC(=O)COc1ccc(C(c2c(C)[nH]c3ccccc23)c2c(C)[nH]c3ccccc23)cc1OC

- emission maximum (in ClC(Cl)Cl): 388 nm
SMILES: N#Cc1c(C#N)c2cc(Cl)ccc2c2ccc(Cl)cc12

- emission maximum (in CO): 813 nm
SMILES: O=C(O)c1ccc(C2=C(/C=C/c3[se]c4ccccc4[n+]3CCCCS(=O)(=O)[O-])CCC/C2=C\C=C2/[Se]c3ccccc3N2CCCCS(=O)(=O)[O-])cc1

- emission maximum (in ClCCl): 443 nm
SMILES: F[B-]1(F)OC(/C=C/c2ccccc2)=CC(c2ccccc2)=[O+]1

- emission maximum (in CCO): 642 nm
- emission maximum (in CS(C)=O): 649 nm
- emission maximum (in O): 620 nm
SMILES: CC1(C)C(/C=C/c2cc3ccc(O)cc3oc2=O)=[N+](CCCS(=O)(=O)[O-])c2ccccc21

- emission maximum (in C1COCCO1): 494 nm
SMILES: N#Cc1ccc(/C=C2\C=C(c3ccccc3)OC2=O)cc1

- emission maximum (in ClCCl): 484 nm
SMILES: Cc1ccc(N(c2ccccc2)c2ccc3ccc4c(N(c5ccccc5)c5ccc(C)cc5)ccc5ccc2c3c54)cc1

- emission maximum (in CO): 550 nm
SMILES: CCOC(=O)CCCCCn1c2ccccc2c(=O)c2cc3c(cc21)c(=O)c1ccccc1n3CC

- emission maximum (in C1CCCCC1): 490 nm
- emission maximum (in CC#N): 514 nm
- emission maximum (in CCO): 552 nm
SMILES: COc1ccc2c(c1)-c1cc(OC)ccc1C2=O

- emission maximum (in CCCCCC): 379 nm
- emission maximum (in CO): 379 nm
- emission maximum (in ClCCl): 380 nm
SMILES: CC(C)(C)c1ccc2ccc3c(C(C)(C)C)ccc4ccc1c2c43

Source: the Deep4Chem optical property database
